PMC4032265 (PLoS ONE, 2014)
Read-outs that look alike come from different tables or passages of the source.

Assays:
hERG potassium channel = hERG potassium channel (Homo sapiens, UniProt Q12809); test: PDSP hERG functional assay; assay type: cell-based; conditions: for Ki: not binding; for inhibition at 10 µM: human, single point 10 µM
[1] = biological target: 5HT1D serotonergic receptor (Homo sapiens, UniProt P28221); test: PDSP radioligand binding, 5HT1D; conditions: read-out: % inhibition at 10 µM
D3 dopaminergic receptor = D3 dopaminergic receptor (Homo sapiens, UniProt P35462); test: PDSP radioligand binding, D3; conditions: read-out: % inhibition at 10 µM
[2] = biological target: T1, M1 muscarinic acetylcholine receptor (Homo sapiens, UniProt P11229); test: PDSP radioligand binding, M1; conditions: read-out: % inhibition at 10 µM
T1 sequence (P11229 1-460): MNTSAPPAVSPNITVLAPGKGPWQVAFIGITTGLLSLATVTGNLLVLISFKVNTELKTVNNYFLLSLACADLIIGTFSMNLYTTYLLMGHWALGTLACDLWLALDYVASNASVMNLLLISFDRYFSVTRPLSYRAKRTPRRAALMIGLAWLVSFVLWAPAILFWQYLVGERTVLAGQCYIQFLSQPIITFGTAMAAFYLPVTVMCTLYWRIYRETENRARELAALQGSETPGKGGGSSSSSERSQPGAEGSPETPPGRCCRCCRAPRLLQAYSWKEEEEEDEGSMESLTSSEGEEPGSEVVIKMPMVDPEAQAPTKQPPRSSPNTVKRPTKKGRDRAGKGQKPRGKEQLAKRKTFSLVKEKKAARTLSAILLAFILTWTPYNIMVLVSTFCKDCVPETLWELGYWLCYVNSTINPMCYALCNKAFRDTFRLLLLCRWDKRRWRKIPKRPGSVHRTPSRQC

[3] = biological target: H1 histaminergic receptor (Homo sapiens, UniProt P35367); test: PDSP radioligand binding, H1; conditions: read-out: % inhibition at 10 µM
κ opioid receptor = κ opioid receptor (Homo sapiens, UniProt P41145); test: PDSP radioligand binding, κ opioid; conditions: read-out: % inhibition at 10 µM
[4] = biological target: T2, 5HT2C serotonergic receptor (Homo sapiens, UniProt P28335); test: PDSP radioligand binding, 5HT2C; conditions: for inhibition at 10 µM: read-out: % inhibition at 10 µM; for Ki: full concentration-response curves, n = 3-6 unless noted
T2 sequence (P28335 33-458): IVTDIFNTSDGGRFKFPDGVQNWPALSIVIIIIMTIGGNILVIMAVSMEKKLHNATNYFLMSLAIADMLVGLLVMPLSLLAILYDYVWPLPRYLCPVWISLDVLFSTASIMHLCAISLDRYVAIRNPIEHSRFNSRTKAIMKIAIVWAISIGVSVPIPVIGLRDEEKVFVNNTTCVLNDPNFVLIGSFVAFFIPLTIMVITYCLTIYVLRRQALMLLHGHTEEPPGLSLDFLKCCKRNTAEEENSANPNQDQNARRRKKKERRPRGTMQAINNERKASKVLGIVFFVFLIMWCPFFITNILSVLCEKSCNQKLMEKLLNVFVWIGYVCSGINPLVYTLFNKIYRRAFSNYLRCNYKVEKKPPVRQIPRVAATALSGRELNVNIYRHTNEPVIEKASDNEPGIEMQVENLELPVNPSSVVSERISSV

[5] = biological target: 5HT6 serotonergic receptor (Homo sapiens, UniProt P50406); test: PDSP radioligand binding, 5HT6; conditions: read-out: % inhibition at 10 µM
[6] = biological target: M3 muscarinic acetylcholine receptor (Homo sapiens, UniProt P20309); test: PDSP radioligand binding, M3; conditions: read-out: % inhibition at 10 µM
σ1 receptor = σ1 receptor (Cavia porcellus, UniProt Q60492); test: PDSP radioligand binding, σ1; conditions: read-out: % inhibition at 10 µM
[7] = biological target: T3, M2 muscarinic acetylcholine receptor (Homo sapiens, UniProt P08172); test: PDSP radioligand binding, M2; conditions: read-out: % inhibition at 10 µM
T3 sequence (P08172 1-466): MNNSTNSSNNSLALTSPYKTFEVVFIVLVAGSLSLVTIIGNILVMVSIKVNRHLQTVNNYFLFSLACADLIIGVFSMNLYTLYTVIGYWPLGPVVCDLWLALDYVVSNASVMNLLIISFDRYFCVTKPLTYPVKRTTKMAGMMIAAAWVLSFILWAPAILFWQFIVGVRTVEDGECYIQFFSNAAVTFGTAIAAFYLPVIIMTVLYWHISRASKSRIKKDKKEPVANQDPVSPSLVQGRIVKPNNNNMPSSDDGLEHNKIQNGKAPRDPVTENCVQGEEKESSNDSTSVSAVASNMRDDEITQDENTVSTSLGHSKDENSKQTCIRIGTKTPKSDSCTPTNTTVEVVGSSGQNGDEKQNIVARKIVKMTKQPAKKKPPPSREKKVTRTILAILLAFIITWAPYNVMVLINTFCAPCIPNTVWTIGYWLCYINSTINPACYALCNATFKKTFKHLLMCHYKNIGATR

[8] = biological target: T4, M4 muscarinic acetylcholine receptor (Homo sapiens, UniProt P08173); test: PDSP radioligand binding, M4; conditions: read-out: % inhibition at 10 µM
T4 sequence (P08173 1-479): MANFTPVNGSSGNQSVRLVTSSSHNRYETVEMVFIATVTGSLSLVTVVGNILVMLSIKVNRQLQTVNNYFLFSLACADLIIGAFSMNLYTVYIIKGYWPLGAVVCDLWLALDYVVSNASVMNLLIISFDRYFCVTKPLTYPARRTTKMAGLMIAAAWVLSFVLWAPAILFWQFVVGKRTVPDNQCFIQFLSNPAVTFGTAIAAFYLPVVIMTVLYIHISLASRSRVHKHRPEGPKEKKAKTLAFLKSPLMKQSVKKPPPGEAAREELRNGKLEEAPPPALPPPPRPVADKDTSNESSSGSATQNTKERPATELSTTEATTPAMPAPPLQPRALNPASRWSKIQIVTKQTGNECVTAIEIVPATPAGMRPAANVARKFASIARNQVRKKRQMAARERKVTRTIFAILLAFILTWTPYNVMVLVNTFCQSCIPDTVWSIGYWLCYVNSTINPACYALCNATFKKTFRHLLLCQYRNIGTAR

[9] = biological target: 5HT1B serotonergic receptor (Homo sapiens, UniProt P28222); test: PDSP radioligand binding, 5HT1B; conditions: read-out: % inhibition at 10 µM
D4 dopaminergic receptor = biological target: T5, D4 dopaminergic receptor (Homo sapiens, UniProt P21917); test: PDSP radioligand binding, D4; conditions: read-out: % inhibition at 10 µM
T5 sequence (P21917 1-419): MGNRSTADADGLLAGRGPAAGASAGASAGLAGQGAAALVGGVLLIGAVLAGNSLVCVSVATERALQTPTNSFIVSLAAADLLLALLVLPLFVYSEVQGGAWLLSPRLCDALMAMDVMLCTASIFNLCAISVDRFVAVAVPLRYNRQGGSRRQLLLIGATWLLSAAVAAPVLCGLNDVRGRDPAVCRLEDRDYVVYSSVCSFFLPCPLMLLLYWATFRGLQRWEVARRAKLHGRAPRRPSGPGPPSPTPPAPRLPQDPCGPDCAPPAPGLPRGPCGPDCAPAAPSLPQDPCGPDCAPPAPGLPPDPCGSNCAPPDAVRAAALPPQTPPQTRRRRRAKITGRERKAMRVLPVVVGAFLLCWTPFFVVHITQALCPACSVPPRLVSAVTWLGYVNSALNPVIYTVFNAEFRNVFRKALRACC

M3 muscarinic acetylcholine receptor, sequence (P20309 whole entry): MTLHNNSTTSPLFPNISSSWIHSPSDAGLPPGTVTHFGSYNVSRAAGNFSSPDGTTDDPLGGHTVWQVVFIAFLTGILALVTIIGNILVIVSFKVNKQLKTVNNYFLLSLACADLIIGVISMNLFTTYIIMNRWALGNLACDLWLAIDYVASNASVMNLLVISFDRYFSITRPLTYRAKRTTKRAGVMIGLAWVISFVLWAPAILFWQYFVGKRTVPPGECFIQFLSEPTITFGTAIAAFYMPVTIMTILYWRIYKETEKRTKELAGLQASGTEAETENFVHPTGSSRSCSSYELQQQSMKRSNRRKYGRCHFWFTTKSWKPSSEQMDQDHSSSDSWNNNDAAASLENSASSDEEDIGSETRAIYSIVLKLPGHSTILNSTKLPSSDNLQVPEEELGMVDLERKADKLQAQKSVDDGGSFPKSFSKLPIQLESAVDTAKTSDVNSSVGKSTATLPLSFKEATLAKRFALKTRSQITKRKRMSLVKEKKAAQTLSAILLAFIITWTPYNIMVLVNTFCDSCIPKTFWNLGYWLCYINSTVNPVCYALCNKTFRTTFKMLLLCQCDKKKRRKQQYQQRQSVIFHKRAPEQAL
D3 dopaminergic receptor, sequence (P35462 whole entry): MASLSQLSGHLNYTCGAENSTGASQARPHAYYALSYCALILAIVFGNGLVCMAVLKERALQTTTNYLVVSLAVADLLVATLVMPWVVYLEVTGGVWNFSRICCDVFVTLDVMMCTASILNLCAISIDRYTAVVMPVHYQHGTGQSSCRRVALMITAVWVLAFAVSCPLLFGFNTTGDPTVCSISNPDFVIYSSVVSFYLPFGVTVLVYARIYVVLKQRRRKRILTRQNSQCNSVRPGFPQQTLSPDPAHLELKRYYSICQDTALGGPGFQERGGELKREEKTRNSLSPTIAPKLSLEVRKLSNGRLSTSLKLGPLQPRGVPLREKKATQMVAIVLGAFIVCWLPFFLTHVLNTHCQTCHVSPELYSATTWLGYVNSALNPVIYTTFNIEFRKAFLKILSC
H1 histaminergic receptor, sequence (P35367 whole entry): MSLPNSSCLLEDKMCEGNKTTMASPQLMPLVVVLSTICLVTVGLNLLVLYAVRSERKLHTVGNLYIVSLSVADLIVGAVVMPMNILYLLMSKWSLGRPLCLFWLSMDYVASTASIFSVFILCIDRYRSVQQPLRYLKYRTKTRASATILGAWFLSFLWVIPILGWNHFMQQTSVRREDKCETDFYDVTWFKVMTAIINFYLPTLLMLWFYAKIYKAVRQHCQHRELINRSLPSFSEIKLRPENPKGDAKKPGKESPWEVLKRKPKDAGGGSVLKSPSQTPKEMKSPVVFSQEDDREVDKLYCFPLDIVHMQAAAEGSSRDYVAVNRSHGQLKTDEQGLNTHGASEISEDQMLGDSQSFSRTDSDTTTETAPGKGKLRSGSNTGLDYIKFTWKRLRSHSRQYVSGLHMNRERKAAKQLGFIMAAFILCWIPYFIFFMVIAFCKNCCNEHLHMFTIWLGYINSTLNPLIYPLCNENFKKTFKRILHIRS
hERG potassium channel, sequence (Q12809 whole entry): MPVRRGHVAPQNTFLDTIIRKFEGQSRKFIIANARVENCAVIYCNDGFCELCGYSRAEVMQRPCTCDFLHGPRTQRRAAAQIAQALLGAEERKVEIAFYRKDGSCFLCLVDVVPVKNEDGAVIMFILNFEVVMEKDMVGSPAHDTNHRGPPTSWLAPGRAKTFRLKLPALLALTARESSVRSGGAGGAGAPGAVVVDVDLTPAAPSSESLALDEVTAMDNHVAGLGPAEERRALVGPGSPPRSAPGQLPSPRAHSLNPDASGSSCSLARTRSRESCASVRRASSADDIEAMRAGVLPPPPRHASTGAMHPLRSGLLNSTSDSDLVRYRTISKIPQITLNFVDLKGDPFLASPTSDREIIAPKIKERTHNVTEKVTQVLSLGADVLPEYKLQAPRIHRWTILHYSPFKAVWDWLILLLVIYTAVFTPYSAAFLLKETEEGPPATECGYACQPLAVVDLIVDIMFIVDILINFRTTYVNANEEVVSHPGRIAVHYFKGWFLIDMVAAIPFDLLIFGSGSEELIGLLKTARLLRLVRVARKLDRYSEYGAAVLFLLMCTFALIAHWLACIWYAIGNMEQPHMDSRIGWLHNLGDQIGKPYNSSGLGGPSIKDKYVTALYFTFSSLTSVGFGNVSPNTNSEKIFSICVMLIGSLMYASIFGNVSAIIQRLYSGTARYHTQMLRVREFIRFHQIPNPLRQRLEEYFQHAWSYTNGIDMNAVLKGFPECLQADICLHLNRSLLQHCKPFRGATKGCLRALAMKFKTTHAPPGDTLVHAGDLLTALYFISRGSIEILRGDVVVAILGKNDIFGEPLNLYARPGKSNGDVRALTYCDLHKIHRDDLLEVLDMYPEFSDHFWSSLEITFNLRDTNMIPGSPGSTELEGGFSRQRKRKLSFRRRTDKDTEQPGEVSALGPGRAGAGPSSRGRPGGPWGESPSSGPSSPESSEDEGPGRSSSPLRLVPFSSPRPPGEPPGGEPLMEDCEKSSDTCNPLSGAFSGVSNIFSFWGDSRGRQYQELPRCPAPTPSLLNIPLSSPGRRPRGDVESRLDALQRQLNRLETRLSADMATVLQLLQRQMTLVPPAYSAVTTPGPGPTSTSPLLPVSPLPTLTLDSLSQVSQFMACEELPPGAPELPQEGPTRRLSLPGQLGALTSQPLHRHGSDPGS
5HT1B serotonergic receptor, sequence (P28222 whole entry): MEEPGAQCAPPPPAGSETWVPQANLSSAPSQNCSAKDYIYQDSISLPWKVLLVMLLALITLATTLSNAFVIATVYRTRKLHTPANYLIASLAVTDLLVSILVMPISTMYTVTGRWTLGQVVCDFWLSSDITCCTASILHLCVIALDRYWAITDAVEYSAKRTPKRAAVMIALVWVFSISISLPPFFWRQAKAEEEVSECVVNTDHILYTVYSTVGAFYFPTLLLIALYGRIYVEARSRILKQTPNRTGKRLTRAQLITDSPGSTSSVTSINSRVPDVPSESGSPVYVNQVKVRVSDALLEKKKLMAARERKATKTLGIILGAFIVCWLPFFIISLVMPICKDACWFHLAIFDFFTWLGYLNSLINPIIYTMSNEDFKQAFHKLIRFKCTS
κ opioid receptor, sequence (P41145 whole entry): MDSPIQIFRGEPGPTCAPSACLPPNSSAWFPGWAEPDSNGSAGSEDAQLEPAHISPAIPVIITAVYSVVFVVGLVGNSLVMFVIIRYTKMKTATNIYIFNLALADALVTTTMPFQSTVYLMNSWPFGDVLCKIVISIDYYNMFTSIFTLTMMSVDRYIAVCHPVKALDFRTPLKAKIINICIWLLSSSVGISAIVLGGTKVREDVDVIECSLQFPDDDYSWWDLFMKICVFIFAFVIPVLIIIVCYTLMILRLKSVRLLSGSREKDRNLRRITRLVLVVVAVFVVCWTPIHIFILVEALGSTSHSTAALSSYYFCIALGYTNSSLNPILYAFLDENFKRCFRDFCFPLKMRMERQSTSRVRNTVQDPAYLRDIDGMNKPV
5HT6 serotonergic receptor, sequence (P50406 whole entry): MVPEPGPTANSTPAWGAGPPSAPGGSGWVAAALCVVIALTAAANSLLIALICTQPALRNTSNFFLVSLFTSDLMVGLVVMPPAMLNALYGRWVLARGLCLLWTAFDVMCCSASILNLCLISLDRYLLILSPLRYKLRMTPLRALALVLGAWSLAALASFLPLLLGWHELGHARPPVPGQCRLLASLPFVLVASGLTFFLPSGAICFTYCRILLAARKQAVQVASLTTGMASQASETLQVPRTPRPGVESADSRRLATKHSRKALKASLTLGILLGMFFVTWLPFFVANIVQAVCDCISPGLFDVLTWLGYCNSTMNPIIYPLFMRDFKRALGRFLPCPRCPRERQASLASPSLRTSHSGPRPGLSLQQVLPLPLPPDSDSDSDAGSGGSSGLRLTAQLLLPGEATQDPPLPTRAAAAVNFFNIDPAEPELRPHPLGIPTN
σ1 receptor, sequence (Q60492 whole entry): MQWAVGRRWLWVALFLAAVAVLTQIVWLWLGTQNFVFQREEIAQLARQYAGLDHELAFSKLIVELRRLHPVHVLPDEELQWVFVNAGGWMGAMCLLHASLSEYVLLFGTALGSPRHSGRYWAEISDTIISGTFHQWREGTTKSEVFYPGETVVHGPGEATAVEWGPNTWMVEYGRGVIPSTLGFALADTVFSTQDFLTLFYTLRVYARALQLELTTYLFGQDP
5HT1D serotonergic receptor, sequence (P28221 whole entry): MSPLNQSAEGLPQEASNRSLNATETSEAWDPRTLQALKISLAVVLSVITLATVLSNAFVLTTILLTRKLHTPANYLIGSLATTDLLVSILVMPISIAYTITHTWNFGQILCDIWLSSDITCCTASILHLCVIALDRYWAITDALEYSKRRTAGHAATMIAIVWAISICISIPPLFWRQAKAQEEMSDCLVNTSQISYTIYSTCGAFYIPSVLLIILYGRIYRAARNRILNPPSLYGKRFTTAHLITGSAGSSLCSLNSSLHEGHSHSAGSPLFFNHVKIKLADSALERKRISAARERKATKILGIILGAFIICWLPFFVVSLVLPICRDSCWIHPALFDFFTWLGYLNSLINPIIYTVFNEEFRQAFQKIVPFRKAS

| Structure (SMILES) | Ki (hERG potassium channel) [µM] | inhibition at 10 µM ([1]; single concentration 10 µM) [%] | inhibition at 10 µM (D3 dopaminergic receptor; single concentration 10 µM) [%] | inhibition at 10 µM ([2]; single concentration 10 µM) [%] | inhibition at 10 µM ([3]; single concentration 10 µM) [%] | inhibition at 10 µM (κ opioid receptor; single concentration 10 µM) [%] | inhibition at 10 µM ([5]; single concentration 10 µM) [%] | inhibition at 10 µM ([6]; single concentration 10 µM) [%] | inhibition at 10 µM (σ1 receptor; single concentration 10 µM) [%] | inhibition at 10 µM ([7]; single concentration 10 µM) [%] | inhibition at 10 µM ([8]; single concentration 10 µM) [%] | inhibition at 10 µM ([9]; single concentration 10 µM) [%] | inhibition at 10 µM (D4 dopaminergic receptor; single concentration 10 µM) [%] | inhibition at 10 µM ([4]; single concentration 10 µM) [%] | Ki [4] [µM] | further results |
| --- | --- | --- | --- | --- | --- | --- | --- | --- | --- | --- | --- | --- | --- | --- | --- | --- |
| CNC(=O)[C@@]12C[C@@H]1[C@@H](n1cnc3c(NC)nc(C#Cc4ccc(F)c(F)c4)nc31)[C@H](O)[C@@H]2O [Compound 5] | 7.93 | 13 | 4 | 0 | 0 | 21 | 15 | 5 | 10 | 0 | 0 | 15 | 4 |  |  | inhibition at 10 µM [4]: 1% |
| O[C@@H]1[C@H](O)[C@@H]2C[C@@H]2[C@H]1n1cnc2c(NCc3cccc(Cl)c3)nc(C#Cc3ccc(F)c(F)c3)nc21 [Compound 6] |  | 12 | 0 | 3 | 3 | 29 | 0 | 0 | 16 | 7 | 32 | 13 | 0 | 0 |  |  |
| O[C@@H]1[C@H](O)[C@@H]2C[C@@H]2[C@H]1n1cnc2c(NCc3cccc(Cl)c3)ncnc21 [Compound 7] |  | 4 | 4 | 24 | 64 | 4 | 39 | 11 | 29 | 15 | 4 | 2 | 0 | 51 | 1.74 |  |
| CNC(=O)[C@@]12C[C@@H]1[C@@H](n1cnc3c(NCc4cccc(Cl)c4)nc(C#Cc4ccc(F)c(F)c4)nc31)[C@H](O)[C@@H]2O [Compound 1] | 12.2 |  |  |  |  |  |  |  |  |  |  |  |  |  | 7.19 ± 1.41 | inhibition at 10 µM (hERG potassium channel): 43 ± 1.9%; inhibition at 10 µM [1]: 0%; inhibition at 10 µM (D3 dopaminergic receptor): 2%; inhibition at 10 µM [2]: 9%; inhibition at 10 µM [3]: 0%; inhibition at 10 µM (κ opioid receptor): 71%; inhibition at 10 µM [4]: 20%; inhibition at 10 µM [5]: 0%; inhibition at 10 µM [6]: 2%; inhibition at 10 µM (σ1 receptor): 0%; inhibition at 10 µM [7]: 22%; inhibition at 10 µM [8]: 20%; inhibition at 10 µM [9]: 0%; inhibition at 10 µM (D4 dopaminergic receptor): 0% |
| CNC(=O)[C@@]12C[C@@H]1[C@@H](n1cnc3c(NCc4cccc(Cl)c4)nc(C#Cc4ccccc4Cl)nc31)[C@H](O)[C@@H]2O [Compound 3] | 39.2 | 10 | 7 | 0 | 21 | 19 | 59 | 5 | 33 | 0 | 8 | 0 | 1 | 25 |  | inhibition at 10 µM (hERG potassium channel): 10.3 ± 4.9% |
| Clc1cccc(CNc2nc(Cl)nc3[nH]cnc23)c1 [Compound 9] |  | 14 | 6 | 12 | 4 | 0 | 31 | 0 | 0 | 9 | 0 | 6 | 0 | 56 | 3.32 ± 0.32 |  |
| Fc1ccc(C#Cc2nc(NCc3cccc(Cl)c3)c3nc[nH]c3n2)cc1F [Compound 8] |  | 26 | 23 | 27 | 1 | 15 | 0 | 10 | 0 | 6 | 4 | 32 | 0 | 11 |  |  |
